Data as given in patent US20070088024A1, “Active substance combination comprising a carbinol combined to at least an NSAID” (LABORATORIOS DEL DR. ESTEVE S.A., priority 2004, published 2007).

Legend:
male Swiss albino mice [1] = assay: Writhing test in mice (phenylbenzoquinone-induced writhing reactions); assay type: in vivo; conditions: for % Activity (inhibition of the writhing reactions): 60 minutes prior to phenylbenzoquinone; for ED50: p.o., in mg/kg
Procedure: (§1) The Writhing test for the determination of the analgesic activity of the inventive active substance combination is carried out according to the method described in the publication of E. Siegmund et al., Proc. Soc. Exp. Biol. Med. 1957, 95, 729-731 using male Swiss albino mice (20-25 g body weight, obtained from Harlan, S. Feliu de Codinas, Spain). The respective part of the description is hereby incorporated by reference and forms part of the respective disclosure.
The Writhing reactions are induced by intraperitoneal injection of phenylbenzoquinone (25 ml/kg in a 0.02% (volume/volume) ethanolic solution in a 5% (volume/volume) solution in destillated water with Evan's blue in an amount of 0.1% weight/volume) and the writhing reactions are counted during a 15 minute period following the injection. The substances to be tested are orally administered 60 minutes prior to the injection of the phenylbenzoquinone solution. The percentage of the inhibition of the writhing reactions is calculated on the basis of the control group as basis for 0% inhibition.

male Swiss albino mice [2] = assay: Formaline test in mice; assay type: in vivo; conditions: 40 mg/kg i.p.
Procedure: as §1, with “Formaline” for “Writhing”, “T. Ohkubo” for “E. Siegmund”, “J. Pharmacol.” for “Proc. Soc.”, “Ther. 1990, 252, 1261-1268” for “Biol. Med. 1957, 95, 729-731”
The substances to be tested are intraperitoneally administered to the mice in 5% by weight solution of arabic gum in destined water as vehicle. 15 minutes later 20 μl of a 5% by weight solution of formaline in saline solution is injected into the back of the right paw of the animals. The total time in seconds of licking and/or biting the injected paw is registered in the acute phase, i.e. 0-5 minutes (phase I), and in the chronic phase, i.e. 15-30 (phase II), minutes after injection of the formaline.
The percentage of inhibition is calculated based on the medium values of the acute and chronic phases of the control group as 0% inhibition of the primary and secondary response.

## CN(C)CCO[C@H](c1ccccc1)c1ccnn1C.O=C(O)Cc1ccccc1Nc1c(Cl)cccc1Cl [R-(+)-Cizolirtine diclofenacate, R-(+)-5-[α-[2-(Dimethylamino)ethoxy]benzyl]-1-methyl-1H-pyrazole diclofenacate]
Male Swiss albino mice [1]; 40 mg/kg p.o.
  % Activity (inhibition of the writhing reactions): 14.7%
Male Swiss albino mice [1]; 80 mg/kg p.o.
  % Activity (inhibition of the writhing reactions): 57.3%
Male Swiss albino mice [1]; 160 mg/kg p.o.
  % Activity (inhibition of the writhing reactions): 72.1%
Male Swiss albino mice [1]
  ED50: 84

## CC(C)Cc1ccc([C@H](C)C(=O)O)cc1.CN(C)CCO[C@H](c1ccccc1)c1ccnn1C [R-(+)-Cizolirtine ibuprofenate, R-(+)-5-[α-[2-(Dimethylamino)ethoxy]benzyl]-1-methyl-1H-pyrazole S-(+)-ibuprofenate]
Male Swiss albino mice [1]; 40 mg/kg p.o.
  % Activity (inhibition of the writhing reactions): 15.9%
Male Swiss albino mice [1]; 80 mg/kg p.o.
  % Activity (inhibition of the writhing reactions): 45%
Male Swiss albino mice [1]; 160 mg/kg p.o.
  % Activity (inhibition of the writhing reactions): 80.9%
Male Swiss albino mice [1]
  ED50: 84.8

## CN(C)CCO[C@H](c1ccccc1)c1ccnn1C.COc1ccc2cc([C@H](C)C(=O)O)ccc2c1 [R-(+)-Cizolirtine naproxenate, R-(+)-5-[α-[2-(Dimethylamino)ethoxy]benzyl]-1-methyl-1H-pyrazole naproxenate]
Male Swiss albino mice [2]; acute phase 0-5 minutes
  % Activity Phase I: 49%
Male Swiss albino mice [2]; chronic phase 15-30 minutes
  % Activity Phase II: 36%
Male Swiss albino mice [1]; 40 mg/kg p.o.
  % Activity (inhibition of the writhing reactions): 32.0%
Male Swiss albino mice [1]; 80 mg/kg p.o.
  % Activity (inhibition of the writhing reactions): 52.0%
Male Swiss albino mice [1]; 160 mg/kg p.o.
  % Activity (inhibition of the writhing reactions): 77.3%
Male Swiss albino mice [1]
  ED50: 71.29

## CN(C)CCO[C@@H](c1ccccc1)c1ccnn1C.COc1ccc2cc([C@H](C)C(=O)O)ccc2c1 [S-(−)-Cizolirtine naproxenate, S-(−)-5-[α-[2-(Dimethylamino)ethoxy]benzyl]-1-methyl-1H-pyrazole naproxenate]
Male Swiss albino mice [1]; 40 mg/kg p.o.
  % Activity (inhibition of the writhing reactions): 26.7%
Male Swiss albino mice [1]; 80 mg/kg p.o.
  % Activity (inhibition of the writhing reactions): 52.4%
Male Swiss albino mice [1]; 160 mg/kg p.o.
  % Activity (inhibition of the writhing reactions): 68.5%
Male Swiss albino mice [1]
  ED50: 82.15

## CN(C)CCO[C@@H](c1ccccc1)c1ccnn1C [S-(−)-Cizolirtine, S-(−)-5-[α-[2-(Dimethylamino)ethoxy]benzyl]-1-methyl-1H-pyrazole]
Male Swiss albino mice [1]; 40 mg/kg p.o.
  % Activity (inhibition of the writhing reactions): 29.0%
Male Swiss albino mice [1]; 80 mg/kg p.o.
  % Activity (inhibition of the writhing reactions): 49.7%
Male Swiss albino mice [1]; 160 mg/kg p.o.
  % Activity (inhibition of the writhing reactions): 59.7%
Male Swiss albino mice [1]
  ED50: 95.26
